Test results reported in PubChem BioAssay AID292 (DTP/NCI, 2004).
Values joined by “and” are separate entries in the source; they are usually repeats but may differ in a detail not shown here. Equal entries are not always repeated. Toxic doses and inconclusive results are not listed. How the source made its calls: active means survival T/C of 150% or more; inactive means T/C below 125% in these data.

Tested on: B6C3F1 mice, ip Sarcoma M5076, median survival T/C
Experiment: NCI In Vivo Anticancer Drug Screen. Data for tumor model Sarcoma M5076 (intraperitoneal) in B6C3F1 mice
Details: endpoint: median survival time, schedule: Q04DX004 (ip), higher = longer survival
How it was run: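 Antitumour effect is judged in tumour-bearing mice by comparing survival after compound dosing against vehicle-only animals, reported as T/C.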

[1] = dose: 25.0 mg/kg/injection, vehicle: distilled water + Tween-80
[2] = dose: 50.0 mg/kg/injection, vehicle: distilled water + Tween-80
[3] = dose: 100.0 mg/kg/injection, vehicle: distilled water + Tween-80
[4] = dose: 6.25 mg/kg/injection, vehicle: Klucel (hydroxypropylcellulose) (HPC)
[5] = dose: 12.5 mg/kg/injection, vehicle: Klucel (hydroxypropylcellulose) (HPC)
[6] = dose: 25.0 mg/kg/injection, vehicle: Klucel (hydroxypropylcellulose) (HPC)
[7] = dose: 50.0 mg/kg/injection, vehicle: Klucel (hydroxypropylcellulose) (HPC)
[8] = dose: 100.0 mg/kg/injection, vehicle: Klucel (hydroxypropylcellulose) (HPC)
[9] = dose: 200.0 mg/kg/injection, vehicle: Klucel (hydroxypropylcellulose) (HPC)
[10] = dose: 100.0 mg/kg/injection, vehicle: saline with Tween-80
[11] = dose: 200.0 mg/kg/injection, vehicle: saline with Tween-80
[12] = dose: 400.0 mg/kg/injection, vehicle: saline with Tween-80
[13] = dose: 75.0 mg/kg/injection, vehicle: saline with Tween-80
[14] = dose: 150.0 mg/kg/injection, vehicle: saline with Tween-80
[15] = dose: 300.0 mg/kg/injection, vehicle: saline with Tween-80
[16] = dose: 600.0 mg/kg/injection, vehicle: saline with Tween-80
[17] = dose: 400.0 mg/kg/injection, vehicle: Klucel (hydroxypropylcellulose) (HPC)
[18] = dose: 800.0 mg/kg/injection, vehicle: Klucel (hydroxypropylcellulose) (HPC)
[19] = dose: 50.0 mg/kg/injection, vehicle: saline with Tween-80

Measured: T/C

COc1cc2c(cc1OC)-c1c3c(cc4c1[C@@H](C2)N(C)CC4)OCO3
inactive: dose: 12.5 mg/kg/injection, vehicle: distilled water + Tween-80 101 % of control | [1] 100 % of control | [2] 100 % of control | [3] 95 % of control

O=C1CCCCCC2=NC12 (stereo not drawn)
inactive: [4] 98 % of control | [5] 100 % of control and 105 % of control | [6] 105 % of control and 112 % of control | [7] 100 % of control and 113 % of control | [8] 103 % of control and 113 % of control

C=CC(=O)NCNC(=O)C=C
inactive: dose: 50.0 mg/kg/injection, vehicle: suspension in saline 99 % of control | dose: 100.0 mg/kg/injection, vehicle: suspension in saline 115 % of control

O=C(Nc1ccc2ccccc2c1)C1C(=O)C(=O)N(c2ccc3ccccc3c2)C1=O (stereo not drawn)
inactive: [7] 100 % of control | [8] 100 % of control | [9] 93 % of control

Nc1ccn(C2CC3[O][Sn]([c]4ccccc4)([c]4ccccc4)[O]CC3O2)c(=O)n1 (stereo not drawn)
inactive: [1] 100 % of control | [2] 100 % of control | [3] 105 % of control | dose: 200.0 mg/kg/injection, vehicle: distilled water + Tween-80 100 % of control | dose: 400.0 mg/kg/injection, vehicle: distilled water + Tween-80 95 % of control

O=c1[nH]c(=O)n(C2CC(O)C(CO)O2)cc1C(F)(F)F (stereo not drawn)
inactive: [10] 113 % of control and 114 % of control | [11] 109 % of control and 113 % of control | [12] 110 % of control and 112 % of control | dose: 800.0 mg/kg/injection, vehicle: saline with Tween-80 116 % of control | dose: 1600.0 mg/kg/injection, vehicle: saline with Tween-80 116 % of control

C=COC(=O)C(Cc1ccccc1)NC(=O)OCc1ccccc1 (stereo not drawn)
inactive: [13] 91 % of control | [14] 111 % of control | [15] 113 % of control | [16] 91 % of control | dose: 1200.0 mg/kg/injection, vehicle: saline with Tween-80 88 % of control

CC(C)(C)c1cc(C2C(C#N)C(=O)NC(=O)C2C#N)cc(C(C)(C)C)c1O (stereo not drawn)
inactive: [7] 88 % of control | [8] 97 % of control | [9] 93 % of control | [17] 95 % of control | [18] 97 % of control

CCn1c2ccccc2c2cc(N)c(N=Nc3ccc(N(C)C)cc3)cc21
inactive: dose: 32.82 mg/kg/injection, vehicle: Klucel (hydroxypropylcellulose) (HPC) 111 % of control | dose: 65.63 mg/kg/injection, vehicle: Klucel (hydroxypropylcellulose) (HPC) 93 % of control | dose: 131.25 mg/kg/injection, vehicle: Klucel (hydroxypropylcellulose) (HPC) 97 % of control | dose: 262.5 mg/kg/injection, vehicle: Klucel (hydroxypropylcellulose) (HPC) 93 % of control | dose: 525.0 mg/kg/injection, vehicle: Klucel (hydroxypropylcellulose) (HPC) 90 % of control

Nc1cc2c(cc1Br)-c1c(C(=O)O)cccc1C2O (stereo not drawn)
inactive: [19] 96 % of control | dose: 50.0 mg/kg/injection, vehicle: sodium bicarbonate 94 % of control | [10] 97 % of control | dose: 100.0 mg/kg/injection, vehicle: sodium bicarbonate 100 % of control | [11] 101 % of control | dose: 200.0 mg/kg/injection, vehicle: sodium bicarbonate 109 % of control | [12] 109 % of control | dose: 400.0 mg/kg/injection, vehicle: sodium bicarbonate 107 % of control | dose: 683.0 mg/kg/injection, vehicle: saline with Tween-80 103 % of control | dose: 800.0 mg/kg/injection, vehicle: sodium bicarbonate 118 % of control

S=C1CCCCN1
inactive: dose: 6.25 mg/kg/injection, vehicle: distilled water + alcohol 101 % of control | dose: 12.5 mg/kg/injection, vehicle: distilled water + alcohol 99 % of control | dose: 25.0 mg/kg/injection, vehicle: distilled water + alcohol 98 % of control and 103 % of control | dose: 50.0 mg/kg/injection, vehicle: distilled water + alcohol 92 % of control and 94 % of control and 100 % of control | dose: 100.0 mg/kg/injection, vehicle: distilled water + alcohol 88 % of control and 100 % of control (2×)

Clc1cccc2[nH]c(-c3ccncc3)nc12
inactive: dose: 37.5 mg/kg/injection, vehicle: saline with Tween-80 104 % of control | [13] 111 % of control | [14] 98 % of control | [15] 105 % of control | [16] 100 % of control

CO[C@@]12[C@@H]3N[C@@H]3CN1C1=C(C(=O)C(NCCc3ccccn3)=C(C)C1=O)[C@@H]2COC(N)=O
active: dose: 25.0 mg/kg/injection, vehicle: saline with Tween-80 172 % of control and 197 % of control | dose: 42.0 mg/kg/injection, vehicle: saline with Tween-80 200 % of control | dose: 69.0 mg/kg/injection, vehicle: saline with Tween-80 280 % of control
inactive: dose: 3.2 mg/kg/injection, vehicle: saline with Tween-80 112 % of control | dose: 5.4 mg/kg/injection, vehicle: saline with Tween-80 122 % of control

O=C(O)CCCc1ccc(N(CCCl)CCCl)cc1
inactive: dose: 2.0 mg/kg/injection, vehicle: saline with Tween-80 108 % of control | dose: 4.0 mg/kg/injection, vehicle: saline with Tween-80 114 % of control and 123 % of control | dose: 8.0 mg/kg/injection, vehicle: saline with Tween-80 118 % of control

N=C(N)Sc1cc(O)ccc1O
inactive: dose: 43.75 mg/kg/injection, vehicle: saline with Tween-80 110 % of control | dose: 87.5 mg/kg/injection, vehicle: saline with Tween-80 109 % of control | dose: 175.0 mg/kg/injection, vehicle: saline with Tween-80 111 % of control | dose: 350.0 mg/kg/injection, vehicle: saline with Tween-80 110 % of control

COc1cc2c(cc1OC)[C@@H]1C(=O)c3ccc4c(c3O[C@@H]1CO2)C[C@H](C(C)C)O4
inactive: [5] 104 % of control | [6] 104 % of control | [7] 104 % of control

CC(=O)/C(=C\c1ccc(/C=C(\C(C)=O)C(=O)CCN(C)C)cc1)C(=O)CCN(C)C
inactive: [12] 92 % of control

CC1=C(C(N)=O)C(c2ccccc2)NC(=S)N1 (stereo not drawn)
inactive: [7] 107 % of control | [8] 99 % of control | [9] 104 % of control

Cc1c2c(ccc3ccccc32)c[n+]2ccccc12
inactive: dose: 1.5 mg/kg/injection, vehicle: saline with Tween-80 97 % of control and 104 % of control and 109 % of control | dose: 3.0 mg/kg/injection, vehicle: saline with Tween-80 92 % of control and 97 % of control and 104 % of control | dose: 6.0 mg/kg/injection, vehicle: saline with Tween-80 92 % of control and 107 % of control and 115 % of control | dose: 12.0 mg/kg/injection, vehicle: saline with Tween-80 92 % of control

COC1OC(COC(C)=O)C(OC(C)=O)C(OC(C)=O)[CH]1[Hg][O]C(C)=O (stereo not drawn)
inactive: [4] 95 % of control | [5] 96 % of control

N#CC1C(=O)NC(=O)C(C#N)C1c1ccc(C2C(C#N)C(=O)NC(=O)C2C#N)cc1 (stereo not drawn)
inactive: [7] 100 % of control | [8] 97 % of control | [9] 100 % of control | [17] 96 % of control | [18] 100 % of control

Nc1ccc2c(c1)C1(CCC2)NC(=O)NC1=O (stereo not drawn)
inactive: [19] 97 % of control | [10] 96 % of control | [11] 98 % of control | [12] 98 % of control
